This note sets out measurements from ChEMBL document CHEMBL1149596, “QSAR study of selective ligands for the thyroid hormone receptor beta” (Bioorg Med Chem, 2007).

SMILES strings stand for the structures. Values joined by “and” are separate entries in the source; they are usually repeats but may differ in a detail not shown here. Identical values can stand only once.

In this assay the target is T1, Thyroid hormone receptor beta (Homo sapiens, UniProt P10828).
T1 sequence (P10828 whole entry): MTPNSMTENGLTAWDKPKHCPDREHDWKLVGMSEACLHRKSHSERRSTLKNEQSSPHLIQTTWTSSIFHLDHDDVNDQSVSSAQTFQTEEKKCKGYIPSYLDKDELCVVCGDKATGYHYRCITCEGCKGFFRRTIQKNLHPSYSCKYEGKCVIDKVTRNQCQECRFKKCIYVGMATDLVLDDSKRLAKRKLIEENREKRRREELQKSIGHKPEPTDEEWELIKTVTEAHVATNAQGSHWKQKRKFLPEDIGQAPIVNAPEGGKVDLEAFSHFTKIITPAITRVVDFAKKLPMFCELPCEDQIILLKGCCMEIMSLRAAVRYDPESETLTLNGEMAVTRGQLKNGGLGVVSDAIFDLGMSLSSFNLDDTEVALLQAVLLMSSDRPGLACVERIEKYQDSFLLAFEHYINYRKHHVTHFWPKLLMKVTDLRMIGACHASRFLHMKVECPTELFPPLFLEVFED

As for `O=c1cnn(-c2cc(Cl)c(Oc3ccc(O)c(S(=O)(=O)NC4CCC4)c3)c(Cl)c2)c(=O)[nH]1`, the 50% inhibitory concentration (IC50) is 1.12 nM.
Consider `O=c1cnn(-c2cc(Cl)c(Oc3ccc(O)c(S(=O)(=O)N4CCCCC4)c3)c(Cl)c2)c(=O)[nH]1`, for which 0.0562 nM corresponded to half-maximal inhibition (IC50).
Turning to `Cc1cc(-n2ncc(=O)[nH]c2=O)cc(Cl)c1Oc1ccc(O)c(S(=O)(=O)N2CCOCC2)c1`, the IC50 was 75.9 nM.
Under `O=C(NC1CCC1)c1cc(Oc2c(Cl)cc(-n3ncc(=O)[nH]c3=O)cc2Cl)ccc1O` stands 1.78 nM; under `O=C(c1cc(Oc2c(Cl)cc(-n3ncc(=O)[nH]c3=O)cc2Cl)ccc1O)N1CCOCC1`, 2 nM; under `O=C(c1cc(Oc2c(Cl)cc(-n3ncc(=O)[nH]c3=O)cc2Cl)ccc1O)N1CCCCC1`, 1.74 nM and 5.25 nM.
On to `O=c1cnn(-c2cc(Cl)c(Oc3ccc(O)c(S(=O)(=O)N4C5CCC4CC4(C5)OCCO4)c3)c(Cl)c2)c(=O)[nH]1`, for which the midpoint of inhibition, the IC50, lay at 0.871 nM.
The value for `Cc1cc(-n2ncc(=O)[nH]c2=O)cc(Cl)c1Oc1ccc(O)c(S(=O)(=O)N2CCCCC2)c1` was 0.363 nM; that for `O=c1cnn(-c2cc(Cl)c(Oc3ccc(O)c(S(=O)(=O)N4C5CCC4CC4(CCCO4)C5)c3)c(Cl)c2)c(=O)[nH]1` (configuration not stated) was 0.776 nM.
`O=c1cnn(-c2cc(Cl)c(Oc3ccc(O)c(S(=O)(=O)Nc4ccccc4)c3)c(Cl)c2)c(=O)[nH]1`: 0.282 nM corresponded to half-maximal inhibition (IC50).
The value for `O=C(O)Cc1cc(Br)c(Oc2ccc(O)c(C(=O)NCC(c3ccccc3)c3ccccc3)c2)c(Br)c1` was 37.2 nM; that for `O=c1cnn(-c2cc(Cl)c(Oc3ccc(O)c(S(=O)(=O)N4CCc5ccccc54)c3)c(Cl)c2)c(=O)[nH]1` was 0.646 nM; that for `CC1(C)C2CCC1(C)[C@H](NC(=O)c1cc(Oc3c(Cl)cc(-n4ncc(=O)[nH]c4=O)cc3Cl)ccc1O)C2` (some centres not stated) was 1.02 nM.
Compound `COc1ccc(CCNC(=O)c2cc(Oc3c(Br)cc(CC(=O)O)cc3Br)ccc2O)cc1` gave a 50% inhibitory concentration (IC50) of 4.79 nM.
`COc1cccc(CCNC(=O)c2cc(Oc3c(Br)cc(CC(=O)O)cc3Br)ccc2O)c1` gave an IC50 of 8.51 nM.
Compound `Cc1cc(-n2ncc(=O)[nH]c2=O)cc(C)c1Oc1ccc(O)c(S(=O)(=O)N2CCCCC2)c1` had an IC50 of 1.29 nM.
In turn, `O=c1cnn(-c2cc(Cl)c(Oc3ccc(O)c(S(=O)(=O)NC4CCCCC4)c3)c(Cl)c2)c(=O)[nH]1` had a concentration for half-maximal inhibition (IC50) of 1.29 nM. In other words, the single-digit nanomolar range.
The value for `O=C(O)Cc1cc(Br)c(Oc2ccc(O)c(C(=O)NC(=O)c3ccccc3)c2)c(Br)c1` was 4.17 nM; that for `COc1ccccc1CCNC(=O)c1cc(Oc2c(Br)cc(CC(=O)O)cc2Br)ccc1O` was 0.468 nM.
For `O=C(NC1CCCCC1)c1cc(Oc2c(Cl)cc(-n3ncc(=O)[nH]c3=O)cc2Cl)ccc1O`, the IC50 was 0.195 nM.
Under `CC1(C)C2CCC(NC(=O)c3cc(Oc4c(Cl)cc(-n5ncc(=O)[nH]c5=O)cc4Cl)ccc3O)C1C2` (stereo in doubt; 42) stands 0.166 nM; under `CC1(C)C2CCC(NC(=O)c3cc(Oc4c(Cl)cc(-n5ncc(=O)[nH]c5=O)cc4Cl)ccc3O)C1C2` (stereo in doubt; 43), 0.112 nM.

One may read the IC50 as the concentration that inhibits the measured activity by half.
